According to patent US12617757B2, “Compounds and modules for inhibition of pre-miR-21 and their use in treatment of certain cancers” (University of Florida Research Foundation, Incorporated, priority 2019, dated 2026):
Read-outs that look alike come from different tables or passages of the source. Blank lines part the entries; values can stand above or below the compound they belong to.

How the values were obtained:
pre-miR-21 [1] = assay: RT-qPCR of mature miR-21 and pre-miR-21 levels in MDA-MB-231 cells; format: cell-based, human; conditions: for effect on mature miR-21 levels / effect on pre-miR-21 levels: MDA-MB-231, RT-qPCR
Experimental: Cell culture compound treatment and transfection. For treatment with compounds, stocks in DMSO or water were diluted in growth media and added to cells for 24-72 h. For transfection of plasmid DNA to overexpress the miR-21 hairpin precursor in pcDNA3.1 (Addgene 21114) or pcDNA3-RNaseL (R. H. Silverman, Cleveland Clinic^24) in 24-well plates, Lipofectamine 2000 was used according to the manufacturer's protocol. After transfection, the medium was removed and replaced with growth medium containing compound prepared as described above. For transfection of a control (Santa Cruz Biotechnology: sc-37007) or RNase L targeting siRNA (Santa Cruz Biotechnology: sc-45965), Lipofectamine RNAiMAX Reagent was used for transfection of oligonucleotides, including 2′-5′ A4, according to the manufacturer's protocol.

pre-miR-21 WT RNA [2] = assay: In vitro Dicer processing of pre-miR-21 WT; format: biochemical
Text: (§1) In vitro Dicer processing. […] Cleavage products were resolved on a denaturing 15% polyacrylamide gel, which was imaged using a Molecular Dynamics Typhoon phosphorimager and quantified with Bio-Rad's QuantityOne software, normalizing to full length RNA.

pre-miR-21 WT = assay: Microscale thermophoresis (MST) binding to pre-miR-21 WT; conditions: read-out: Kd, binding of the pre-miR-21 RNA Dicer site
Experimental: (§2) Microscale Thermophoresis (MST) Binding Measurements. MST fluorescent measurements were performed on a Monolith NT.115 system (NanoTemper Technologies) using the fluorescence of a miR-21 hairpin (A+U Bulge): (5′ Cy5-[…]-3′) (SEQ ID NO: 1) or a miR-21 base paired control (5′ Cy5-[…]-3′) (SEQ ID NO: 2) which were purchased from IDT with RNase-free HPLC purification and used without further purification. The RNA (5 nM) was diluted in 1×MST Buffer (8 mM Na2HPO4, 190 mM NaCl, 1 mM EDTA, and 0.05% (v/v) Tween-20) and folded by heating at 60° C. for 5 min, and slowly cooling to room temperature. Compounds 1 and 2 were diluted in 1×MST Buffer, followed by 1:3 dilutions in 1×MST Buffer containing 5 nM RNA. […] Fluorescence measurements (Ex: 605-645 nm, Em: 680-685 nm) were performed at 10% LED and 80% MST power, with a Laser-On time of 30 s and Laser-Off time of 5 s. The data were analyzed by thermophoresis analysis and fitted by the quadratic binding equation in MST analysis software (NanoTemper Technologies). Dissociation constants were then determined by curve fitting using a single-site model. Normalized MST signal was calculated by normalizing the fluorescent signals using the MST data of 1 binding to pre-miR-21 WT with the lowest signal as 0 and the highest fluorescent signal as 1.

pre-miR-21 BP RNA = assay: In vitro Dicer processing of pre-miR-21 BP; format: biochemical
Text: as §1

pre-miR-21 BP = assay: MST binding to pre-miR-21 BP (base paired control); conditions: addition of 100 μM of compound
Experimental: as §2

pre-miR-21 [3] = assay: Cellular Chem-CLIP / C-Chem-CLIP in MDA-MB-231 cells; format: cell-based, human; conditions: for enrichment of the pre-miR-21 transcript by Chem-CLIP: MDA-MB-231, RT-qPCR
Experimental: Cellular Chem-CLIP/C-Chem-CLIP. The MDA-MB-231 cells were grown to ˜70% confluency as monolayers in 60 mm dishes. The cells were treated with Chem-CLIP compounds (8 or 9) and/or non-cross-linking competitors (1 or 2) for 48 h. Total RNA was extracted using a Quick-RNA MiniPrep Kit (Zymo Research) per the manufacturer's protocol. Approximately 20-30 μg of total RNA was then incubated with 100 μL of streptavidin-agarose beads (Sigma-Aldrich) and shaken for 1 h at room temperature. The solution was removed beads washed six times with 1×PBS. The RNA bound to beads was released, purified, and used for RT-qPCR as previously described^23. Relative fold enrichment of the measured RNA before and after pulldown was measured using equation 3 (Eq. 3): Relative Fold Enrichment=2^−(ΔC^t^before pulldown−ΔC^t^after pulldown) (Eq. 3)
where “ΔCt before pulldown” is the difference between the Ct values for the RNA of interest and a housekeeping gene in total RNA from cells and “ΔCt after pulldown” is the difference between the Ct values for the RNA of interest and the same housekeeping gene in RNA after pulldown.

pre-miR-210 = assay: RT-qPCR of pre-miR-210 and miR-210 in hypoxic MDA-MB-231 cells; format: cell-based, human; conditions: hypoxic MDA-MB-231, RT-qPCR
pri-miR-21 = assay: Ribo-SNAP-Map in MDA-MB-231 cells; format: cell-based, human
Experimental: Ribo-SNAP-Map. The MDA-MB-231 cells were grown in 100 mm dishes to ˜70% confluency and treated with cleaving compound (10) for 6 h. Total RNA was then extracted by treatment with TRIzol (ThermoFisher Scientific) and quantified by Nanodrop. Approximately 10 μg of total RNA was used for reverse transcription with a pri-miR-21 specific primer (5′-[…]-3′; 2 pmol) (SEQ ID NO: 12) using Superscript III (SSIII; Life Technologies). Approximately of 10 μg RNA with 2 pmol of gene-specific primer and 1 μL 10 mM dNTP Mix in a total volume of 13 μL was incubated at 65° C. for 5 min and then placed in ice for 5 min. Next, 4 μL 5×First-Strand Buffer, 1 μL 0.1 M DTT, 1 μL RNaseOUT and 1 μL SuperScript™ III RT were added and the mixture was incubated at 50° C. for 1 h, followed by 85° C. for 10 min. After digestion with RNase A and RNase H, the remaining cDNA was purified using RNAClean XP beads (Beckman Coulter; 1.8 volumes of beads and 3 volumes of isopropanol).
The purified cDNA was ligated with a 3′ adapter (5′ Phosphate NNN-[…]-3′ Biotin) (SEQ ID NO: 13) by T4 RNA ligase 1 (New England BioLabs; NEB) following the manufacturer's recommended protocol (2 μL 10×T4 RNA ligase buffer, 1 μL of 1 mM ATP, 10 μL 50% PEG 8000, 5 μL cDNA, 1 μL of 20 μM ssDNA adaptor, and 1 μL of T4 RNA ligase). Then, the cDNA ligated to the adaptor was purified with RNAClean XP beads as described above. PCR amplification was performed with the ligated cDNA by using Phusion polymerase (NEB) with cycling conditions of 98° C. for 20 s, 64° C. for 20 s and 72° C. for 90 s and the following forward (5′-[…]-3′) (SEQ ID NO: 14) and reverse (5′-[…]-3′) (SEQ ID NO: 15) primers. The PCR products were separated on a denaturing 15% polyacrylamide gel and the target band was excised from the gel and ethanol precipitated. The purified DNA was ligated into a vector using NEB's PCR Cloning Kit per the manufacturer's protocol. Antibiotic-resistant colonies were selected and subjected to Sanger sequencing by Genewiz. The cleavage sites and percentage were determined by comparing the cleaver treated samples and non-treated samples.

pri-miR-21 RNA = assay: In vitro Ribo-SNAP; format: biochemical; conditions: dose responsive treatment
Experimental: In vitro Ribo-SNAP. The pri-miR-21 RNA (1 μM) was folded as described above. Dilutions of cleaver compounds (Bleomycin A5 or 10) were pre-activated by the addition of 1 eq Fe^2+ and added to the folded RNA in a total volume of 20 μL. After 30 min and 60 min, an additional equivalent of Fe^2+ was added and then the reaction mixtures were incubated at 37° C. overnight. After ethanol precipitation and quantification by Nanodrop, reverse transcription was performed using SuperScript™ III Reverse Transcriptase (ThermoFisher Scientific) per the manufacturer's protocol using a 5′ ^32P-labeled forward primer (˜10,000 counts). The A, T, G and C sequencing ladders were generated by using a ratio of ddNTP/dNTP of 3:1. The RNA was digested by the addition of RNase A and RNase H and incubated at 37° C. for 30 min. Then, an equal volume of Loading Buffer (95% […], 50 mM EDTA, 0.05% (w/v) bromophenol blue, 0.05% (w/v) xylene cyanol) was added to each reaction. The final mixture was resolved on a denaturing 15% polyacrylamide gel.

pre-miR-21 WT RNA [4] = assay: In vitro Chem-CLIP pulldown; format: binding
Experimental: In vitro Chemical Cross-linking and Isolation by Pull Down (Chem-CLIP) and Competitive Chemical Cross-linking and Isolation by Pull Down (C-Chem-CLIP). RPMI growth medium was heat inactivated at 95° C. for 15 min and then cooled to room temperature. Approximately 10,000 counts of ^32P 5′-end labeled miR-21 precursor hairpin RNA (pre-miR-21 WT) was folded in growth medium at 95° C. for 1 min. After cooling to room temperature, dilutions of Chem-CLIP probes 8 or 9^23 were added and incubated at 37° C. for 18 h. Alternatively, for C-Chem-CLIP, dilutions of competing non-cross-linking parent compounds, 1 or 2, were incubated with RNA for 1 h before addition of Chem-CLIP probe compounds. Streptavidin-agarose beads (Sigma-Aldrich) were then used to pulldown RNA. Samples were then washed with 1×PBS supplemented with 0.1% (v/v) Tween-20 and bound and unbound RNA radioactivity measured using a Beckman Coulter LS6500 Liquid Scintillation Counter as previously described^23.

SMILES: CCCN(CC(=O)N(CCC)CC(=O)N(CCC)CC(=O)N(CC(=O)NCCOCCOCCOCCOc1cc(C=C2SC(Nc3ccccc3)=C(C(=O)OCC)C2=O)ccc1O)Cc1cn(CCCNC(=O)CCCOc2ccc(-c3nc4cc(-c5ccc(N6CCN(C)CC6)cc5)ccc4[nH]3)cc2)nn1)C(=O)CN(Cc1cn(CCCNC(=O)CCCOc2ccc(-c3nc4cc(-c5ccc(N6CCN(C)CC6)cc5)ccc4[nH]3)cc2)nn1)C(C)=O [Compound 7]
- effect on mature miR-21 levels (pre-miR-21 [1]): decreased miR-21 levels
- effect on pre-miR-21 levels (pre-miR-21 [1]): increased pre-miR-21 levels
- effect on mature miR-21 levels (pre-miR-21 [1]; listed as Formula 7): did not have enhanced activity over Formula 2

- Kd (pre-miR-21 WT): 20 µM
SMILES: CN1CCN(c2ccc(-c3ccc4[nH]c(-c5ccc(OCCCC(=O)NCCCN=[N+]=[N-])cc5)nc4c3)cc2)CC1 [Compound 1]
- increase of pre-miR-21 levels (pre-miR-21 [1]; 10 μM, MDA-MB-231): 1.3 fold
- inhibition of miR-21 production (pre-miR-21 [1]; 10 μM, MDA-MB-231): 50%
- effect on mature miR-21 levels (pre-miR-21 [1]): inhibits mature miR-21-5p biogenesis
- effect on pre-miR-21 levels (pre-miR-21 [1]): boosts levels of pre-miR-21
- inhibition of / protection from Dicer processing (pre-miR-21 WT RNA [2]): Protection with compound is observed at U23 (boxes marked with arrows) and U26 and U27
- inhibition of / protection from Dicer processing (pre-miR-21 WT RNA [2]; listed as Formula 1): inhibited in vitro Dicer processing
- protection from Dicer processing (pre-miR-21 BP RNA): Protection with compound is observed at U26 and U27
- saturation of the binding isotherm (pre-miR-21 BP): No saturation of the binding isotherm was observed
- competition of Chem-CLIP enrichment (C-Chem-CLIP) (pre-miR-21 [3]; MDA-MB-231, versus probe 8): enrichment is depleted

SMILES: CN1CCN(c2ccc3nc(-c4ccc5nc(-c6cccc(OCCCC(=O)NCCCN=[N+]=[N-])c6)[nH]c5c4)[nH]c3c2)CC1 [Compound 26]
- effect on mature miR-210 levels (pre-miR-210): inhibits mature miR-210 levels
- effect on pre-miR-210 (pre-miR-210): boosts levels of pre-miR-21

SMILES: CCCN(CC(=O)N(CCC)CC(=O)N(CCC)CC(=O)N(CC(=O)NCCCCNCCCNC(=O)c1csc(-c2csc(CCNC(=O)C(NC(=O)C(C)[C@H](O)C(C)NC(=O)C(NC(=O)c3nc(C(CC(N)=O)NC[C@H](N)C(N)=O)nc(N)c3C)[C@@H](OC3OC(CO)C(O)C(O)C3OC3OC(CO)C(O)C(OC(N)=O)C3O)c3c[nH]cn3)C(C)O)n2)n1)Cc1cn(CCCNC(=O)CCCOc2ccc(-c3nc4cc(-c5ccc(N6CCN(C)CC6)cc5)ccc4[nH]3)cc2)nn1)C(=O)CN(Cc1cn(CCCNC(=O)CCCOc2ccc(-c3nc4cc(-c5ccc(N6CCN(C)CC6)cc5)ccc4[nH]3)cc2)nn1)C(C)=O (stereo partly drawn) [Compound 10]
- effect on mature miR-21 levels (pre-miR-21 [1]): decreases mature miR-21 levels
- effect on pre-miR-21 levels (pre-miR-21 [1]): cleaved and decreased pre-miR-21 levels
- reads that stop at the second A (3′) (pri-miR-21; 3/21 reads): 14%
- reads that stop at the third A (3′) (pri-miR-21; 6/21 reads): 29%
- reads that stop at the first C (5′) (pri-miR-21; 12/21 reads): 57%
- RT stops induced in pri-miR-21 (pri-miR-21 RNA): induced an RT stop at the indicated sites

SMILES: CC(=O)N(CCNC(=O)CCCc1ccc(N(CCCl)CCCl)cc1)CC(=O)N(CC(=O)N(CCNC(=O)CCCCC1SCC2NC(=O)NC21)CC(N)=O)Cc1cn(CCCNC(=O)CCCOc2ccc(-c3nc4cc(-c5ccc(N6CCN(C)CC6)cc5)ccc4[nH]3)cc2)nn1 (stereo not drawn) [Compound 8]
- pulldown of 32P 5′-end labeled pre-miR-21 WT RNA (pre-miR-21 WT RNA [4]): greater enrichment of the RNA compared to 9
- enrichment of pre-miR-21 by Chem-CLIP pulldown (pre-miR-21 [3]; 10 μM, MDA-MB-231): ~2.5 fold
- enrichment of the pre-miR-21 transcript by Chem-CLIP (pre-miR-21 [3]; 10 μM): enrichment for the pre-miR-21 transcript

SMILES: CCOC(=O)C1=C(Nc2ccccc2)SC(=Cc2ccc(OCCOCCOCCOCCNC(=O)CCCOc3cccc(-c4nc5ccc(-c6nc7cc(N8CCN(C)CC8)ccc7[nH]6)cc5[nH]4)c3)c(O)c2)C1=O [Compound 25]
- effect on pre-miR-210 (pre-miR-210): Cleavage of pre-miR-210

SMILES: C#CCN(CC(=O)N(CCC)CC(=O)N(CCC)CC(=O)N(CCC)CC(=O)N(CC#C)CC(=O)NCCOCCOCCOCCOc1ccc(C=C2SC(Nc3ccccc3)=C(C(=O)OCC)C2=O)cc1O)C(C)=O [Compound 6]
- effect on mature miR-21 levels (pre-miR-21 [1]): inactive

SMILES: C#CCN(CC(=O)N(CCNC(=O)CCCCC1SCC2NC(=O)NC21)CC(N)=O)C(=O)CN(CCNC(=O)CCCc1ccc(N(CCCl)CCCl)cc1)C(C)=O (stereo not drawn) [Compound 9, reference compound]
- enrichment of the pre-miR-21 transcript by Chem-CLIP (pre-miR-21 [3]; 10 μM): no enrichment
